Data on 15 compounds can be found in paper PMC8531348, “Design, synthesis, biological evaluation, and molecular modeling studies of pyrazole-benzofuran hybrids as new α-glucosidase inhibitor” (Scientific Reports, 2021).

Data set [1] addresses T1, α-glucosidase enzyme (from Saccharomyces cerevisiae, EC3.2.1.20) (Saccharomyces cerevisiae, UniProt P53341).
T1 construct: purchased Sigma Chemical Co. (St. Louis, USA)
Kind of data set: biochemical. The class given is biochemical. The conditions noted are these: for fold more potent than the standard acarbose: ratio of IC50 versus acarbose. As to the method: The α-glucosidase enzyme (from Saccharomyces cerevisiae, EC3.2.1.20) was used to evaluate the α-glucosidase inhibitory activity. […] Therefore, α-glucosidase from yeast is extensively used for the preliminary screening of α-glucosidase inhibitors[47],[48]. […] Stock solutions of the test compounds and acarbose were prepared in DMSO and eventually diluted with phosphate buffer saline to attain the desired concentration. […] The percentage of enzyme inhibition for each entry was calculated using the following formula:
% Inhibition = [(Abs control—Abs sample)/Abs control] × 100.

Data set [2] deals with 3T3 cell line. Kind of data set: Cytotoxicity against normal 3T3 cell line by MTT assay. The format is cell-based. The conditions noted are these: at 150 µM concentration, 3T3, MTT. As to the method: (§1) The results of cytotoxic activity were expressed as the IC50 (µM) and outlined in Table 2.
(§2) The cytotoxicity of the compounds 8e, 8l, 8f and 8n was determined using the 3-(4,5 Dimethylthiazol-2-yl)-2,5-diphenyltetrazolium bromide (MTT) assay according to previously described methods.
For orientation: Formazan colour is commonly taken as a measure of viable cells.

Experiment in data set [3]: as above
The class given is cell-based. The conditions noted are these: mouse, 3T3 cells (normal cell line); MTT assay, normal 3T3 cell line. As to the method:
as §1, §2

Data set [4] deals with T2, α-glucosidase (Saccharomyces cerevisiae, UniProt P53341).
T2 construct: purchased Sigma Chemical Co. (St. Louis, USA)
Kind of data set: Kinetic study of α-glucosidase inhibition (Lineweaver–Burk plots). The format is biochemical. As to the method:
In different concentrations of test compound (0, 10, 25, and 40 µM) and with the incremental concentration (2–10 mM) of substrate, the rate of the enzyme activity was calculated. The type of inhibition and experimental inhibition constant (Ki) value were determined by employing Lineweaver–Burk plots and secondary re-plot of these plots, respectively. […] This pattern indicates a competitive type of inhibition.
The kinetics of enzyme inhibition was performed according to the reaction conditions in 2.5 by preparing a series of test solutions in which the concentration of the substrate (PNPG) was varied (2–10 mM) in the absence and presence of compound 8e at different concentrations (0, 10, 25, and 40 µM). A Lineweaver–Burk plot was generated to identify the type of inhibition and the Michaelis–Menten constant (Km) value was determined from the plot between reciprocal of the substrate concentration (1/[S]) and reciprocal of enzyme rate (1/V) over various inhibitor concentrations. The experimental inhibitor constant (Ki) value was constructed by secondary plots of the inhibitor concentration [I] versus Km.

Where “and” joins values, the source holds several entries; their conditions need not be identical. Equal values may be shown once. Read-outs that look alike come from different tables or passages of the source. Where only a bound is given, the exact number is not on record here.

T2 sequence (P53341 whole entry): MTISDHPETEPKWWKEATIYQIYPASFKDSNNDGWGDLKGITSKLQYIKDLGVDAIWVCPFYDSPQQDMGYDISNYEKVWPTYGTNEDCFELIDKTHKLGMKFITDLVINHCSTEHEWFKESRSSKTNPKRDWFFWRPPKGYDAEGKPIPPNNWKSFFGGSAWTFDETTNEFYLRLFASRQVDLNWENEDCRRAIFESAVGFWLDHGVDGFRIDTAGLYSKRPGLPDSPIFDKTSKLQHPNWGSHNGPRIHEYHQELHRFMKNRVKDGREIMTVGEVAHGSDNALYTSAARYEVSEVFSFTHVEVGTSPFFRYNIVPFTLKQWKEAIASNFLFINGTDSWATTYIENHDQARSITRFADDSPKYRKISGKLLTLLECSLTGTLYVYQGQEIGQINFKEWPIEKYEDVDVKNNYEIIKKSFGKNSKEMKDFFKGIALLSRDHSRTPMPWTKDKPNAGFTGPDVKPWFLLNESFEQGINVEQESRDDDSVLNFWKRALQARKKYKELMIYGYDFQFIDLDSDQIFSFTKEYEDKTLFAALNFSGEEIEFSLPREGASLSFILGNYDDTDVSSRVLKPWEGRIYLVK
T1 sequence (P53341 whole entry): as above

Compound `Cc1ccc(-n2cc(C=NNC(=O)c3cc4ccccc4o3)c(-c3ccccc3)n2)cc1` [8j, N'-((3-Phenyl-1-p-tolyl-1H-pyrazol-4-yl)methylene)benzofuran-2-carbohydrazide] gave a melting point of 255 to 256 °C. In data set [1], this compound registered an IC50 of 157 ± 1.6 µM.
The compound `Cc1ccc(-c2nn(-c3ccc(C)cc3)cc2C=NNC(=O)c2cc3ccccc3o2)cc1` [8k, N'-((1,3-Dip-tolyl-1H-pyrazol-4-yl)methylene)benzofuran-2-carbohydrazide] showed a melting point of 259 to 261 °C. The IC50 in data set [1] came to 115.6 ± 0.9 µM.
`Cc1ccc(-n2cc(C=NNC(=O)c3cc4ccccc4o3)c(-c3ccc(O)cc3)n2)cc1` [8m, N'-((3-(4-Hydroxyphenyl)-1-p-tolyl-1H-pyrazol-4-yl)methylene)benzofuran-2-carbohydrazide]: the melting point is 293 to 295 °C. In data set [1], this compound registered an IC50 of 127 ± 1 µM.
The compound `O=C(NN=Cc1cn(-c2ccccc2)nc1-c1ccc(C(F)(F)F)cc1)c1cc2ccccc2o1` [8i, N'-((1-Phenyl-3-(4-(trifluoromethyl)phenyl)-1H-pyrazol-4-yl)methylene)benzofuran-2-carbohydrazide] had a melting point of 217 to 218 °C. Moreover, half-maximal inhibition in data set [1] (IC50) required 101.7 ± 0.7 µM.
`O=C(NN=Cc1cn(-c2ccccc2)nc1-c1ccc(F)cc1)c1cc2ccccc2o1` [8h, N'-((3-(4-Fluorophenyl)-1-phenyl-1H-pyrazol-4-yl)methylene)benzofuran-2-carbohydrazide] had a melting point of 253 to 254 °C. The compound also registered an IC50 in data set [1] of 164 ± 1.8 µM.
As to `Cc1ccc(-n2cc(C=NNC(=O)c3cc4ccccc4o3)c(-c3ccc(Br)cc3)n2)cc1` [8n, N'-((3-(4-Bromophenyl)-1-p-tolyl-1H-pyrazol-4-yl)methylene)benzofuran-2-carbohydrazide], the melting point was 258 to 259 °C. Further, the “cytotoxicity against normal cell line” value in data set [2] is listed as “noncytotoxic”. In data set [3], this compound showed an IC50 of more than 150 µM. Also, in data set [1], the IC50 stood at 95.6 ± 0.6 µM and the “fold more potent than the standard acarbose” value is recorded as “approximately eight-fold”.
In the case of `O=C(NN=Cc1cn(-c2ccccc2)nc1-c1ccc([N+](=O)[O-])cc1)c1cc2ccccc2o1` [8e, N'-((3-(4-Nitrophenyl)-1-phenyl-1H-pyrazol-4-yl)methylene)benzofuran-2-carbohydrazide], the type of inhibition entry in data set [4] (Lineweaver–Burk plot) is “competitive”. In data set [4] (secondary re-plot of Lineweaver–Burk plots, 0, 10, 25, 40 µM inhibitor, substrate 2–10 mM, read-out: inhibition constant Ki), the Ki was ~38 µM and 38 µM. Moreover, the “cytotoxicity against normal cell line” value in data set [2] was “noncytotoxic”. The IC50 is more than 150 µM in data set [3] and 40.6 ± 0.2 µM in data set [1] (mean ± SD, at least three experiments, substrate p-nitrophenyl-α-glucopyranoside, read-out: IC50 α-glucosidase inhibitory activity). In addition, in data set [1], the “fold more potent than the standard acarbose” value is recorded as “approximately 18 fold”.
`O=C(N/N=C/c1cn(-c2ccccc2)nc1-c1ccc(O)cc1)c1cc2ccccc2o1` [8d, (E)-N'-((3-(4-hydroxyphenyl)-1-phenyl-1H-pyrazol-4-yl)methylene)benzofuran-2-carbohydrazide]: the melting point fell in the range of 280 to 281 °C. This compound displayed an IC50 in data set [1] of 133.6 ± 1.2 µM.
Compound `O=C(NN=Cc1cn(-c2ccccc2)nc1-c1ccc(Br)cc1)c1cc2ccccc2o1` [8f, N'-((3-(4-Bromophenyl)-1-phenyl-1H-pyrazol-4-yl)methylene)benzofuran-2-carbohydrazide] registered a melting point of 243 to 245 °C. In data set [2], the “cytotoxicity against normal cell line” value is “noncytotoxic”. This compound also gave an IC50 in data set [3] of more than 150 µM. For the same compound, in data set [1], the IC50 was 79.7 ± 0.5 µM and the “fold more potent than the standard acarbose” value is reported as “nine-fold”.
`O=C(NN=Cc1cn(-c2ccccc2)nc1-c1ccccc1)c1cc2ccccc2o1` [8a, N'-((1,3-Diphenyl-1H-pyrazol-4-yl)methylene)benzofuran-2-carbohydrazide] came in with a melting point of 210 to 211 °C. 141.2 ± 1.4 µM corresponded to half-maximal inhibition in data set [1] (IC50).
`COc1ccc(-c2nn(-c3ccccc3)cc2C=NNC(=O)c2cc3ccccc3o2)cc1` [8c, N'-((3-(4-Methoxyphenyl)-1-phenyl-1H-pyrazol-4-yl)methylene)benzofuran-2-carbohydrazide] had a melting point of 207 to 209 °C. The IC50 in data set [1] stood at 100.3 ± 0.7 µM.
`COc1ccc(-c2nn(-c3ccc(C)cc3)cc2C=NNC(=O)c2cc3ccccc3o2)cc1` [8l, N'-((3-(4-Methoxyphenyl)-1-p-tolyl-1H-pyrazol-4-yl)methylene)benzofuran-2-carbohydrazide]: the melting point lay in the range of 230 to 232 °C. Besides, the “cytotoxicity against normal cell line” value in data set [2] is reported as “noncytotoxic”. For the same compound, in data set [3], the IC50 is more than 150 µM. Further, in data set [1], half-maximal inhibition (IC50) was put at 54.7 ± 0.3 µM and the “fold more potent than the standard acarbose” value is reported as more than 13 fold. Moreover, the “increase in activity compared with compound 8c” value in data set [1] (effect of methyl group on R2) is “two-fold”.
`O=C(NN=Cc1cn(-c2ccccc2)nc1-c1ccc(Cl)cc1)c1cc2ccccc2o1` [8g, N'-((3-(4-Chlorophenyl)-1-phenyl-1H-pyrazol-4-yl)methylene)benzofuran-2-carbohydrazide]: the melting point was in the range of 241 to 243 °C. Besides, the IC50 in data set [1] is 125.3 ± 1 µM.
For `Cc1ccc(-c2nn(-c3ccccc3)cc2C=NNC(=O)c2cc3ccccc3o2)cc1` [8b, N'-((1-Phenyl-3-p-tolyl-1H-pyrazol-4-yl)methylene)benzofuran-2-carbohydrazide], the melting point lay within 234 to 235 °C. In data set [1], this compound showed an IC50 of 108.3 ± 0.8 µM.
For `Cc1ccc(-n2cc(C=NNC(=O)c3cc4ccccc4o3)c(-c3ccc(Cl)cc3)n2)cc1` [8o, N'-((3-(4-Chlorophenyl)-1-p-tolyl-1H-pyrazol-4-yl)methylene)benzofuran-2-carbohydrazide], the melting point was 248 to 249 °C. This compound had an IC50 in data set [1] of 155 ± 1.6 µM.

The melting point is the temperature of the solid-liquid transition. In general, IC50 refers to the midpoint of a concentration-inhibition curve. One may read the Ki as the equilibrium dissociation constant of an inhibitor or competing ligand from its target.
